We go through 1 molecule from PMC7737769, “Pharmacological inhibition of syntenin PDZ2 domain impairs breast cancer cell activities and exosome loading with syndecan and EpCAM cargo” (Journal of Extracellular Vesicles, 2020).

In this assay the test system is T1, syntenin‐Frizzled7 complex (GST-SyntFL / FZD7 peptide).
T1 construct: residues 1–298 or syntenin full‐length (FL) for HTRF assays; made in house; host or cells: E. coli ER2566
Nature of the assay: HTRF assay, syntenin-Frizzled 7 interaction. In kind it is biochemical, human. The method, then: HTRF assays were performed in white 96Well Small VolumeHiBase Polystyrene Microplates (Greiner) with a total working volume of […], as described previously (Milhas et al., 2016). Briefly, compounds were firstly dispensed into the wells at 400 µM for the primary screen or with serial DMSO dilutions for IC50 measurement assays. Primary screening assays have been performed in monoplicate while IC50 measurements were performed in triplicates. All HTRF reagents were purchased from CisBio Bioassays and reconstituted according to the supplier protocols. The plates were spun for 3 min at 500 × g and then incubated at 4°C for 16 h. The HTRF signals were recorded on a POLAR star Omega plate reader (BMG Labtech) with an excitation filter at 337 nm and fluorescence wavelength measurement at 620 and 665 nm, an integration delay of 60 µs and an integration time of 400 µs. Results were analysed with a two‐wavelength signal ratio: [intensity (665 nm)/intensity (620 nm)] × 10^4. Percentage of inhibition was calculated using the following equation: % inhibition = [(compound signal)–(min signal)]/[(max signal)–(min signal)] × 100, where ‘max signal’ is the signal ratio with the compound vehicle alone (DMSO) and ‘min signal’ the signal ratio without protein B. For IC50 measurements, values were normalized and fitted with Prism (GraphPad software) using the following equation: Y = 100/(1+((X/ IC50)ˆHill slope)).
The search strategy for PDZ2 syntenin inhibitors was based on the PDZ targeted library developed from Enamine compound collection. The PDZ targeted library was developed to cover virtually all PDZ domains. Consequently, to create the syntenin PDZ2 focused library we used two independent paths: docking of the PDZ targeted library against structures of syntenin PDZ2 available in Protein Data Bank and a random selection from the PDZ targeted library. The docking has produced 21 virtual hits, which were added to 118 randomly selected compounds (10% of the pan PDZ library). The resultant set of 139 compounds, syntenin PDZ library was subjected to experimental validation. The primary screen was performed at 400µM using a previously validated Homogeneous Time Resolved Fluorescence (HTRF) assay (Milhas et al., 2016). HTRF is based on Fluorescence Resonance Energy Transfer (FRET) between two fluorescent reagents. In the present case, Anti‐GST‐Terbium antibody and streptavidin‐bound Dynamic2 were used as donor and acceptor respectively. Interactions between GST PDZ‐fusion proteins and biotinylated peptides containing PDZ binding motifs were challenged with the potential inhibitors. In parallel, control experiments were performed with a biotinylated‐GST to verify that compounds were not interfering with the FRET signal in a non‐specific manner. To identify inhibitors of syntenin PDZ interactions, we tested for the effect of the 139 compounds on syntenin‐SDC2 and syntenin‐Frizzled7 complexes (Figure 1a; Table S1). When the HTRF signal dropped below 0.9, inhibition was considered as effective. […] Noteworthy, these compounds had no effect on other PDZ complexes like GRASP55‐JAM‐B or GRASP55‐JAM‐C and Erbin‐Erbb2 or Erbin‐P0071 (Figure 1c).
(TR-FRET usually uses a lanthanide donor and a delayed reading to cut background.)

Turning to `CC(C)[C@H](NC(=O)CSc1ccc(Cl)cc1)C(=O)O` [Compound C58], the “GST SyntFL Frizzled 7 (signal ratio)” value (400µM compound, Figure 1c) was determined as 0.38. Further, the “HTRF ASSAY GST-SyntFL FZD7 (HTRF signal ratio)” value (primary screen, 400 µM compound, signal below 0.9 considered effective inhibition, Table S1) was determined as 0.39.
